One assay deals with T1, mTAAR7e (Mus musculus, UniProt Q5QD09).
T1 construct: Full Taar coding regions were cloned into pcDNA3.1-(Invitrogen); Rho tag (first 20 aa of bovine rhodopsin + linker); expressed in transfected cells; host or cells: HEK293
T1 sequence (Q5QD09 1-358): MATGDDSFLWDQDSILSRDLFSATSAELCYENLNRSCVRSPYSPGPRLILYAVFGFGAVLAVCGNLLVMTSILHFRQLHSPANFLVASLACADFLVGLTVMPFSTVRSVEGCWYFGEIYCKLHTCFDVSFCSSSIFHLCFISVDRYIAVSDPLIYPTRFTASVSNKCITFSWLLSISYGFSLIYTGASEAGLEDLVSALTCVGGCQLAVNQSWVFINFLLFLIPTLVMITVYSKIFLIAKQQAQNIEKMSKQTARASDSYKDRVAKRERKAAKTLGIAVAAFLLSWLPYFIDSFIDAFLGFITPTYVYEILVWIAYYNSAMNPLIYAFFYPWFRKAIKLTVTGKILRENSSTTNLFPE
In words: TAAR reporter gene assay, mTAAR7e. The assay is classed as cell-based. From the text: (§1) Here, we set out to identify agonists for additional mouse and rat TAARs. We examined odor response profiles using a previously established reporter gene assay based on cAMP-dependent odor transduction in olfactory sensory neurons (40, 42). Briefly, TAAR plasmids were transfected into HEK293 cells along with a cAMP-dependent reporter gene encoding secreted alkaline phosphatase (CRE-SEAP). TAARs were expressed both in unmodified form and as fusion proteins with an N-terminal sequence of bovine rhodopsin (‘Rho tag’) that promotes cell surface expression of some chemosensory receptors (35). Transfected cells were incubated with test chemicals, and phosphatase activity was quantified with a fluorescent substrate as a reporter for TAAR activation. In initial experiments, we tested 38 different odorant mixtures containing 244 structurally diverse test chemicals (2-5 μM) for the ability to activate each mTAAR. Subsequently, we tested 73 amines that included known mTAAR agonists and related chemicals for the ability to activate each rTAAR.
(§2) TAAR functional assays. […] Fluorescence was measured on an EnVision plate reader (Perkin Elmer) and SEAP activity graphed as relative fluorescence of a phosphatase substrate.
On the technique in general: Reporter assays use an easily measured gene product as a stand-in for the process of interest.

The target of a further assay is T2, mTAAR7f (Mus musculus, UniProt Q5QD08).
T2 sequence (Q5QD08 1-358): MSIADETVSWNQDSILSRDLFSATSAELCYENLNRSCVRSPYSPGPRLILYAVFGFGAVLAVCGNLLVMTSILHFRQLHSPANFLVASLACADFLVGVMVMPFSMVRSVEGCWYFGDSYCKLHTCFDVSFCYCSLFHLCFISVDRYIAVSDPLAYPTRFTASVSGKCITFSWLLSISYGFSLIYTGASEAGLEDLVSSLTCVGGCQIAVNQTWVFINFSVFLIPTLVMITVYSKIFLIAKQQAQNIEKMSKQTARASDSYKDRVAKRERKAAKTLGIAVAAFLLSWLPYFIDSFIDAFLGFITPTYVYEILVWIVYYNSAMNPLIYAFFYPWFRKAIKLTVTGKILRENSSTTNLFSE
In words: TAAR reporter gene assay, mTAAR7f. The assay is classed as cell-based. The arrangement: Full Taar coding regions were cloned into pcDNA3.1-(Invitrogen); Rho tag (first 20 aa of bovine rhodopsin + linker); expressed in transfected cells; host or cells: HEK293.
Source text: as §1, with “Subsequently, we tested 73 amines that included known mTAAR agonists and related chemicals for the ability to activate each rTAAR.” left out
as §2
TAAR functional assays. […] SEAP activity is measured as fluorescence resulting from dephosphorylation of a substrate, 4-methylumbelliferyl phosphate. Fluorescence values were obtained using an EnVision plate reader (Perkin Elmer) and are reported directly without normalization. […]

Structures are written as SMILES.

`CN(C)CCc1ccccc1` [ligand 6, N,N-dimethyl-2-phenylethylamine]: the mTAAR7e activation result on mTAAR7e is “activated”. Further, the mTAAR7f activation entry at mTAAR7f was “not”.

On to `CN(C)C1CCCCC1` [ligand 10, N,N-dimethylcyclohexylamine], for which the mTAAR7e activation entry on mTAAR7e is “not”. Besides, the mTAAR7f activation entry at mTAAR7f is listed as “activated”.

Source of the values: patent US20140221499A1, “NOVEL RODENT CONTROL AGENTS AND USES THEREOF” (priority 2011, published 2014).
